Measurements taken from publication PMC10653868, “The LytS-type histidine kinase BtsS is a 7-transmembrane receptor that binds pyruvate” (mBio, 2023).

Key:
Assay in all cases: DRaCALA with […]-pyruvate and competition with cold pyruvate, membrane vesicles
Assay type in all cases: binding
BtsS [1] = biological target: T1, BtsS (Escherichia coli, UniProt P0AD14, R72A)
T1 construct: BtsS-R72A-6His in membrane vesicles of E. coli MG1655 ΔbtsSRΔypdABC

BtsS [2] = biological target: T2, BtsS (Escherichia coli, UniProt P0AD14, C110A)
T2 construct: BtsS-C110A-6His in membrane vesicles of E. coli MG1655 ΔbtsSRΔypdABC

BtsS [3] = biological target: T3, BtsS (Escherichia coli, UniProt P0AD14, S113A)
T3 construct: BtsS-S113A-6His in membrane vesicles of E. coli MG1655 ΔbtsSRΔypdABC

BtsS [4] = biological target: T4, BtsS (Escherichia coli, UniProt P0AD14, R99A)
T4 construct: BtsS-R99A-6His in membrane vesicles of E. coli MG1655 ΔbtsSRΔypdABC

BtsS [5] = biological target: T5, BtsS (Escherichia coli, UniProt P0AD14)
T5 construct: BtsS-6His in membrane vesicles of E. coli MG1655 ΔbtsSRΔypdABC
T5 sequence (P0AD14 whole entry): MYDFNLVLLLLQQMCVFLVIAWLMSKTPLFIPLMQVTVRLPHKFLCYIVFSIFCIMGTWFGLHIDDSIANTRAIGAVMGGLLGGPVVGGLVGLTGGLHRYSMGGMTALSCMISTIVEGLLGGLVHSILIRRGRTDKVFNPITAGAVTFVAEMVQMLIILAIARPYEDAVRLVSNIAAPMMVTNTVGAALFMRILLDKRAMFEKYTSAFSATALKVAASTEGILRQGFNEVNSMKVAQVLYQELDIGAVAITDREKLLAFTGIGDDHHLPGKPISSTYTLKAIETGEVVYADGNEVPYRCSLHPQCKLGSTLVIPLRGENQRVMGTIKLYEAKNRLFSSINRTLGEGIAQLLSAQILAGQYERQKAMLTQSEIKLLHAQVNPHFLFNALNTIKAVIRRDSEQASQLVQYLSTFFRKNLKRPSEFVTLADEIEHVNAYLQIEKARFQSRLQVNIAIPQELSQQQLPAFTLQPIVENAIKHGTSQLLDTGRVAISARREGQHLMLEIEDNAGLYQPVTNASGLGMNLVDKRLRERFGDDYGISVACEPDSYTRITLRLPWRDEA

T1 sequence (P0AD14 whole entry R72A): as the sequence (P0AD14 whole entry) above, with R72A counted along it
T2 sequence (P0AD14 whole entry C110A): as the sequence (P0AD14 whole entry) above, with C110A counted along it
T4 sequence (P0AD14 whole entry R99A): as the sequence (P0AD14 whole entry) above, with R99A counted along it
T3 sequence (P0AD14 whole entry S113A): as the sequence (P0AD14 whole entry) above, with S113A counted along it

Work on CC(=O)C(=O)O [pyruvate] yielded a Kd (BtsS [1]) of 107 ± 12.3 µM, a Kd (BtsS [2]) of 375 ± 21.2 µM and a Kd (BtsS [3]) of 284 ± 8 µM. For the same compound, the Kd (BtsS [4]) was 245 ± 10.1 µM and the Kd (BtsS [5]) was 67.3 ± 10.6 µM.
